Here are results for three compounds from PMC11313180 (International Journal of Molecular Sciences, 2024).

Read-outs that look alike come from different tables or passages of the source.

In assay [1] the test system is HDAC6. The following applies: ref [21], cited from earlier work.
The target in assay [2] is T1, HDAC6 (Homo sapiens, UniProt Q9UBN7).
T1 sequence (Q9UBN7 1-1215): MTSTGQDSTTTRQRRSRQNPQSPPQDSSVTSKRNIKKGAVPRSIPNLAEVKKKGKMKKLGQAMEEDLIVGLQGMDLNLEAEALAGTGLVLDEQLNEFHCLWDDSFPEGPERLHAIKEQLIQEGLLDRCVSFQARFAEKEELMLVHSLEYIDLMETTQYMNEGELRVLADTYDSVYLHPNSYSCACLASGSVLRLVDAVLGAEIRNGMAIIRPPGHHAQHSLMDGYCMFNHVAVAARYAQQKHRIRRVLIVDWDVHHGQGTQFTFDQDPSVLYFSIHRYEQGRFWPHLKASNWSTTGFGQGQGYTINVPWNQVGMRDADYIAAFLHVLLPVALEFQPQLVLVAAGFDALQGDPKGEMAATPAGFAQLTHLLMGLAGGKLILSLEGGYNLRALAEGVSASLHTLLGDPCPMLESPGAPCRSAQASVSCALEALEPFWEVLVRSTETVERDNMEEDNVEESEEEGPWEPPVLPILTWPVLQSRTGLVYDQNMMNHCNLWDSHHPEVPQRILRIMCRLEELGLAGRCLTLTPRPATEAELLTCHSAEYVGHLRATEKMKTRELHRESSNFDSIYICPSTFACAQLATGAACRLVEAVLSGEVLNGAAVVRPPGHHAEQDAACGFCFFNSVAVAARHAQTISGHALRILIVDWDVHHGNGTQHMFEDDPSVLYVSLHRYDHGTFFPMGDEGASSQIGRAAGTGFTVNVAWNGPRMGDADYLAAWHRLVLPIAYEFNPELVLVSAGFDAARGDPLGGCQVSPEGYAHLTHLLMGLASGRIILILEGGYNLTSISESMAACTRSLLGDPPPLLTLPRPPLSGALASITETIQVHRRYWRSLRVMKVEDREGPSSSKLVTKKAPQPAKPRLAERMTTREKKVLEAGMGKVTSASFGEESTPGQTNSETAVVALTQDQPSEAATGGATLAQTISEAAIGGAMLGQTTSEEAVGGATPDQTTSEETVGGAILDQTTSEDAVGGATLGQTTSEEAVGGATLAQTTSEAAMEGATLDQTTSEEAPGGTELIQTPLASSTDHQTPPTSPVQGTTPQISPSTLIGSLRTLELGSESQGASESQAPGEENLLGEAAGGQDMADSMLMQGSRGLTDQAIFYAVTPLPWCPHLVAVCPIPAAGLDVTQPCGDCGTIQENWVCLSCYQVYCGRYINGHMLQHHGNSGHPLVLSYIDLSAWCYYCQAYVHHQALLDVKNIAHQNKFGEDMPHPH
Nature of the assay: Enzyme HDAC inhibition assay, HDAC6.
Source text: (§4) All human recombinant enzymes were purchased from Reaction Biology Corp. (Malvern, PA, USA).

Assay [3] deals with HDAC2 (Homo sapiens, UniProt Q92769). Nature of the assay: Enzyme HDAC inhibition assay, HDAC2.
HDAC2 (Homo sapiens, UniProt Q92769), sequence (Q92769 whole entry): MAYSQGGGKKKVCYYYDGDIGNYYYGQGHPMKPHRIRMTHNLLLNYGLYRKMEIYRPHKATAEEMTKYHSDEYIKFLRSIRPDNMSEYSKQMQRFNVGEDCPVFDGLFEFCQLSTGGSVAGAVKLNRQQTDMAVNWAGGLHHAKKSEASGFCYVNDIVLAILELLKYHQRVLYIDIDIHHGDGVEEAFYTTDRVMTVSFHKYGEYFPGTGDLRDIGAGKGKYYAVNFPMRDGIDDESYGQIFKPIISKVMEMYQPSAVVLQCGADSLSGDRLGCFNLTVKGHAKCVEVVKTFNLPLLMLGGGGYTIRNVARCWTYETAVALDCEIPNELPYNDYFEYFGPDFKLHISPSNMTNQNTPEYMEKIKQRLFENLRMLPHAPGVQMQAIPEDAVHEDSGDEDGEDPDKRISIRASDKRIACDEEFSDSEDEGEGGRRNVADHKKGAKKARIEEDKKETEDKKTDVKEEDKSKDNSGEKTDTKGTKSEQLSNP
Source text: as §4
In assay [4] the test system is HDAC2. The following applies: obtained by fitting Lechner et al. source data to a sigmoidal concentration–effect model; ref [21]; read-out: IC50 HDAC 2, Lechner et al.; cited from earlier work.
Assay [5] deals with HDAC8. The following applies: ref [21], cited from earlier work; for IC50: obtained by fitting Lechner et al. source data to a sigmoidal concentration–effect model, read-out: IC50 HDAC 8, Lechner et al.
The target in assay [6] is T2, HDAC8 (Homo sapiens, UniProt Q9BY41).
T2 sequence (Q9BY41 1-377): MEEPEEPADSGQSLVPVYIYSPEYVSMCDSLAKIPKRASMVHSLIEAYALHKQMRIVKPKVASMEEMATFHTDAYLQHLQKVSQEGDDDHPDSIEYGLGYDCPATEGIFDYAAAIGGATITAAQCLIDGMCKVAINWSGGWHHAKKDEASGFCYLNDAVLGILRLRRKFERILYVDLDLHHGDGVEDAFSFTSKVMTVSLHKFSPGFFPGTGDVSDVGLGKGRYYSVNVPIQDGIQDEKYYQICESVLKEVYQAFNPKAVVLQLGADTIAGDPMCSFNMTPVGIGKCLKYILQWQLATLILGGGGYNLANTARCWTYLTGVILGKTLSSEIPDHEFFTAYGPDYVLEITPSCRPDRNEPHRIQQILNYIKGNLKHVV
Nature of the assay: Enzyme HDAC inhibition assay, HDAC8.
Source text: as §4

In another assay the target is T3, HDAC4 (Homo sapiens, UniProt P56524).
T3 construct: purchased Reaction Biology Corp. KDA-21-279
T3 sequence (P56524 whole entry): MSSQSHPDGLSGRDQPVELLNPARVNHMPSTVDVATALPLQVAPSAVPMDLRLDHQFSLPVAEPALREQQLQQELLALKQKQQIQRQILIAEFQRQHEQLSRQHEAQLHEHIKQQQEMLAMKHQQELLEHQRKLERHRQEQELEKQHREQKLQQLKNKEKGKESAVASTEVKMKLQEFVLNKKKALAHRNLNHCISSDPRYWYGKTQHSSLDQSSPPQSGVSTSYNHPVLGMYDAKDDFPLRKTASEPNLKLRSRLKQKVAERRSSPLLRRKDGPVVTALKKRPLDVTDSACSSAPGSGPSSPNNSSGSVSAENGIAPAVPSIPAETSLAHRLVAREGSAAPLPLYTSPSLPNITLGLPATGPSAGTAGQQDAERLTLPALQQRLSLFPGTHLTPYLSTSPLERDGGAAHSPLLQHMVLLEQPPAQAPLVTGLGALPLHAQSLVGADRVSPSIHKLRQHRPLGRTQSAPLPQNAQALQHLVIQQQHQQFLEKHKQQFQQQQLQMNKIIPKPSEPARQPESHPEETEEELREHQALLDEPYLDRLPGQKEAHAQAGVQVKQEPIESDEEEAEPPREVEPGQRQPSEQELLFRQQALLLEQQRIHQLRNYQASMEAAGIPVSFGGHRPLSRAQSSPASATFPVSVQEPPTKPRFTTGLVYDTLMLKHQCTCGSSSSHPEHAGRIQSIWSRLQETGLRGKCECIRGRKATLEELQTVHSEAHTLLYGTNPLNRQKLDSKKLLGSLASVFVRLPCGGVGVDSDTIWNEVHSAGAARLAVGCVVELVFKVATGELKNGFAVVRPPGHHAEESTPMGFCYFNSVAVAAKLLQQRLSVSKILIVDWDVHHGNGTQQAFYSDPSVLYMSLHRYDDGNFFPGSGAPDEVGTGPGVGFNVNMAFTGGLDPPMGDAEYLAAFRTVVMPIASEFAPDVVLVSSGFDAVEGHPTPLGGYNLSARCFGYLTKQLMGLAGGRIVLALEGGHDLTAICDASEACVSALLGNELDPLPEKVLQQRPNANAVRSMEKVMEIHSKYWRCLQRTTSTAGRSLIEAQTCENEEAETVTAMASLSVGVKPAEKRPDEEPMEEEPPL
Nature of the assay: Enzyme HDAC inhibition assay, HDAC4. The assay is classed as biochemical. The following applies: IC50 ± SEM; three experiments in duplicates; read-out: IC50 HDAC 4.

Assay [7] has as its system caspase 3/7 in T47D cells. Nature of the assay: Caspase 3/7 activation assay, T47D. The class given is cell-based, human. Conditions: 0.5 mM or 1 mM, 24 h. As for the experimental part: (§1) To analyze the compound-induced activation of capases 3 and 7, the CellEvent caspase 3/7 green detection reagent (Thermo Scientific, Wesel, Germany) was used according to the manufacturer’s instructions. […] After 24 h incubation, medium was removed, and cells were stained with 50 µL of CellEvent caspase 3/7 green detection reagent (2 µM in PBS supplemented with 5% heat-inactivated FBS). Cells were incubated for 30 min at 37 °C in a humidified incubator before imaging by using the Thermo Fisher ArrayScan XTI high content screening (HCS) system with a 10× magnification (Thermo Scientific). Hoechst 33342 was added for nuclei staining.

In assay [8] the test system is caspase 3/7 in MCF-7 cells. Nature of the assay: Caspase 3/7 activation assay, MCF-7. The following applies: 0.5 mM or 1 mM, 24 h. The class given is cell-based, human. As for the experimental part:
as §1

The subject of assay [9] is T47D. Nature of the assay: Immunoblotting, T47D. The following applies: 48 h. The class given is cell-based, human. On the procedure: (§2) A quantity of 20 or 40 µg of total protein as well as, from PageRuler Prestained Protein Ladder, 10–180 kDA (Thermo Scientific, Wesel, Germany), were resolved by SDS-Page (12% polyacrylamide gel) and transferred to polyvinylidene fluoride membrane (Millipore Corporation, Billerica, MA, USA). Blots were incubated with primary antibodies against acetylated a -tubulin (Cat. No. sc-23950), a -tubulin (Cat. No. sc-8035) (Santa Cruz Biotechnology, Heidelberg, Germany), acetyl histone h3 (Cat. No. 39140) and histone H3 (Cat. No. NB100-1669), ß-actine (Cat. No. sc-47778), p21 (AF1047), c-myk (Cat. No. MAB3696), APAF1 (Cat. No. MAB868), BIM (Cat. No. NBP1-76936), FOXO1 (Cat. No. C29H4), BCL-2 (Cat. No. AF810), and survivin (Cat. No. AF886). After another one-hour incubation with the appropriate HRP-conjugated secondary antibody, proteins were visualized by Intas Imager (Intas, Göttingen, Germany) using luminol reagent (Santa Cruz Biotechnology, Heidelberg, Germany).
A general note: A western blot detects proteins with antibodies after separation by electrophoresis.

Assay [10] relates to MCF-7. Nature of the assay: Immunoblotting, MCF-7. The following applies: 48 h. The assay is classed as cell-based, human. As for the experimental part: as §2
In assay [11] the test system is MCF-7. Nature of the assay: MTT cell viability assay, MCF-7. The class given is cell-based, human. Conditions: 120 h; IC50 ± SEM; read-out: IC50 MCF-7, 120 h MTT assay. On the procedure:
(§3) MTT assays were performed as previously described. […] After incubation time, medium was replaced by MTT (solution of 5 mg/mL 3-(4,5-dimethylthiazol-2-yl)-2,5-diphenyl-tetrazoliumbromidin in phosphate buffered saline, Serva, Heidelberg, Germany).

Assay [12] deals with T47D. Nature of the assay: MTT cell viability assay, T47D. The assay is classed as cell-based, human. Conditions: 120 h; IC50 ± SEM; read-out: IC50 T-47D, 120 h MTT assay. On the procedure:
as §3
Background: Tetrazolium assays rely on reduction of a dye to a coloured formazan, in cell work by metabolically active cells.

Assay [13] has as its system class I/IIb HDAC activity in T47D cells. Nature of the assay: cells. The class given is cell-based, human. The following applies: T47D cells, 48 h, substrate Boc-Lys-AC-AMC; IC50 ± SEM, one experiment in triplicates; read-out: IC50 Cellular HDAC Assay. On the procedure:
The cellular HDAC assay was performed based on an assay published by Heltweg and Jung and Ciossek et al.. Breast cancer cell line T-47D (12,000 c/w) was seeded in 96-well tissue culture plates (Corning, Kaiserslautern, Germany) in a total volume of 90 µL of culture medium. After 24 h, cells were incubated 48 h with increasing concentrations of a-lipoic acid. The reaction was started by adding 10 µL of 3 mM Boc-Lys(Ac)-AMC (Bachem, Bubensdorf, Switzerland) and again incubated for 3 h under cell culture conditions. […]

The next assay concerns MDA-MB-231. Nature of the assay: MTT cell viability assay, MDA-MB-231. The assay is classed as cell-based, human. Conditions: 120 h; IC50 ± SEM; read-out: IC50 MDA-MB-231, 120 h MTT assay. On the procedure: MTT assays were performed as previously described. Cell numbers plated differed depending on each incubation time: MDA-MB-231 5000 c/w, MCF-7 5000 c/w (72 h) and 3000 c/w (120 h), T-47D 10,000 c/w (72 h) and 5000 c/w /120 h). After incubation time, medium was replaced by MTT (solution of 5 mg/mL 3-(4,5-dimethylthiazol-2-yl)-2,5-diphenyl-tetrazoliumbromidin in phosphate buffered saline, Serva, Heidelberg, Germany). After 10 min (MCF-7), 20 min (MDA-MB-231), and 30 min (T47D) and dissolving in DMSO (VWR, Langenfeld, Germany), absorbance was measured at 544 nm and 690 nm in a FLUOstar microplate reader (BMG LabTech, Offenburg, Germany).

The mark [14] stands for this setting: obtained by fitting Lechner et al. source data to a sigmoidal concentration–effect model, read-out: IC50 HDAC 6, Lechner et al.

Source text for HDAC4: as §4

The IC50 is the point on the concentration scale where inhibition reaches its midpoint. As for `O=C(O)CCCCC(S)CCS` (racemic), the IC50 is 1.7 µM in the assay with HDAC6 [1] (setting [14]); ~1 µM in the assay with HDAC6 [1] (read-out: IC50 at HDAC6 as reported by Lechner et al.); 6.48 ± 2.11 µM on HDAC6 [2]; 98.1 ± 35.6 µM at HDAC2 [3]; 27.9 µM in the assay with HDAC2 [4]; 22.3 µM in the assay with HDAC8 [5]. Besides, the IC50 at HDAC8 [6] worked out at 51.5 ± 10.5 µM; at HDAC4 it was 177 ± 17.5 µM. The “more active than rac-α-lipoic acid at HDAC6, Lechner et al.'s study” value in the assay with HDAC6 [1] was “around 100 fold”. Besides, the “HDAC6 preference (selectivity for HDAC6)” value at HDAC6 [2] (versus HDAC2, 4 and 8, from Table 1) is 8 fold. The “more active than rac-α-lipoic acid at HDAC8, Lechner et al.'s study” value in the assay with HDAC8 [5] was “at least 5 fold”.
`O=C(O)CCCCC1CCSS1` (stereo not drawn) [α-lipoic acid]: the “caspase activation, T47D” value in assay [7] was 5–15%. In addition, in assay [8], the “caspase activation, MCF-7” value is reported as 5–15%. Moreover, the “expression of BCL-2, T47D” value in the assay on T47D [9] is “loss or massive reduction in expression”. The “expression of BCL-2, MCF-7” value with MCF-7 [10] is reported as “loss or massive reduction in expression”.
As for `O=C(O)CCCCC1CCSS1` (racemic) [rac-α-lipoic acid], the IC50 was 454 ± 15.2 µM in the assay on MCF-7 [11]; 191 µM with HDAC6 [1] (setting [14]); 15.3 ± 4.6 µM on HDAC6 [2] (read-out: IC50 HDAC 6, IC50 ± SEM, three experiments in duplicates); 208 ± 4.2 µM at HDAC2 [3] (read-out: IC50 HDAC 2, IC50 ± SEM, three experiments in duplicates); 391 µM with HDAC2 [4]; 373 ± 13.9 µM in the assay on T47D [12]. The IC50 was 109 µM with HDAC8 [5]; 464 ± 83 µM at HDAC8 [6] (read-out: IC50 HDAC 8, IC50 ± SEM, three experiments in duplicates); 1190 ± 67 µM in [13]; 262 ± 37.8 µM at HDAC4; 275 ± 22.5 µM in the assay on MDA-MB-231.
